Consider four compounds from patent US5703059A, “Disaccharide ligands for selectins” (British Biotech Pharmaceuticals Ltd., priority 1993, dated 1997).

The assay concerns the target T1, E-selectin (Homo sapiens, UniProt P16581).
T1 construct: expressed in transfected cells
T1 sequence (P16581 22-610): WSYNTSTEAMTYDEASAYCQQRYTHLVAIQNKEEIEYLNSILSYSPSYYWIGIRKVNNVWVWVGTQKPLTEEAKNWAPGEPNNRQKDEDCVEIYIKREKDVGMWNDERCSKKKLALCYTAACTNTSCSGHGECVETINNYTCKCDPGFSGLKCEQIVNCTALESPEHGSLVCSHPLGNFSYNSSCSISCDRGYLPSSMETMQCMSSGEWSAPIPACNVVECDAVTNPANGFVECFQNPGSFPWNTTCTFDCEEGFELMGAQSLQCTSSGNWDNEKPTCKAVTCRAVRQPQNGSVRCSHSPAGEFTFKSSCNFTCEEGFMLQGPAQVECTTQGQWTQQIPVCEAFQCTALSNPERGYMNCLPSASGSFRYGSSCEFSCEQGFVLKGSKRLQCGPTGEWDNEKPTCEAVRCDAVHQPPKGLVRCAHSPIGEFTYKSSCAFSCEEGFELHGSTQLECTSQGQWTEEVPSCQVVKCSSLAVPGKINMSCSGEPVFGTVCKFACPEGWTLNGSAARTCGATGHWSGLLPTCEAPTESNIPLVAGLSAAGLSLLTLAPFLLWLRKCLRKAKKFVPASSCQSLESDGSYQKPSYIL
The experiment in a line: Inhibition of E-selectin mediated adhesion of 3H-thymidine labelled U937 cells to E-selectin expressing CHO cells. It is filed as cell-based. The note with it: U937 binding to E-selectin expressing CHO cells, 4° C., 1 hour. As for the experimental part:
The test compounds were assayed to determine their effectiveness at inhibiting E-selectin mediated adhesion between a leucocytic cell line, U937, which expresses ligands for E-selectin, and a Chinese Hamster Ovary cell line which stably expresses E-selectin. The assay has been validated with a commercial known ligand of the E-selectin, 3'-sialyl-3-fucosyl lactose (3S'3FL).
A 96 well plate was seeded with E-selectin expressing CHO cells which were confluent on the day of the assay.
U937 cells were incubated overnight with ^3 H thymidine. (Incubation conditions: 2×10^5 U937 cells per ml, 0.0751 μCi ^3 H thymidine).
Hanks Balanced salts solution, 25 mM HEPES, 0.1% azide.
The compounds were dissolved in 1 ml of assay medium. For E8, 10% methanol was added to achieve a homogenous solution.
The pH of the compounds was adjusted to approximately pH 7.2.
The ^3 H thymidine count value at each concentration of inhibitor is the average of six replicates. Maximum binding was measured by binding U937 cells to E-Selectin CHO cells in the absence of any test compounds.
Background was measured by U937 binding to untransfected CHO cells.
On the day of assay the 96 well plate was washed 3 times in ice cold assay medium. 50 μl of test sample was added to each well and incubated on ice for 1 hour. Meanwhile the U937 cells were washed 3 times in ice cold assay medium. resuspended at a concentration of 3×10^6 cells per ml and then 50 μl was added to each plate. The plates were kept on ice and allowed to incubate at 4° C. for 1 hour. Then they were washed ×3 and the remaining cells solubilised and the radioactivity in the samples counted.
The U937 cells that were used in the 1D2 control were pre-incubated in the presence of 0.1 mg/ml gammaglobulin before addition to the plate.

In turn, `CC(=O)N[C@H]1[C@H]([C@H](O)[C@H](O)CO)O[C@@](O[C@H]2[C@@H](O)[C@@H](CO)O[C@@H](O[C@H]3[C@H](O[C@@H]4O[C@@H](C)[C@@H](O)[C@@H](O)[C@@H]4O)[C@@H](O)C(O)O[C@@H]3CO)[C@@H]2O)(C(=O)O)C[C@@H]1O` (stereo partly shown) [3'S3FL, 3'-sialyl-3-fucosyl lactose, reference compound] yielded an inhibition at 500 µM (0.5 mM) of 54%.
Where the note is “17.1 mM”, `COC(=O)C1(OCCCC(=O)CC2(O)C(C)OC(OC)C(O)C2O)CC(O)C(NC(C)=O)C(C(O)C(O)CO)O1` [E7, α-O-Methyl-4R-[{5"N-acetyl-α2"-O-neuraminidylmethyl ester}-5'-oxy-2'-oxo-pent-1'-yl]-L-fucopyranoside] displayed an inhibition at 17100 µM of 65%.
With `COC1OC(C)C(O)(CC(=O)CCCOC2(C(=O)O)CC(O)C(NC(C)=O)C(C(O)C(O)CO)O2)C(O)C1O` [E8, α-O-Methyl-4R-[{N-acetyl-α2"-neuraminidylsodium carboxylate}5'-oxy-2'-oxo-pent-1'-yl]-L-fucopyranoside], for the setting “26.8 mM, 10% methanol added”, testing at 26800 µM gave an inhibition of 18.5%.
The compound `COC(=O)C1(OCCCC=CC(O)CC2(O)C(C)OC(OC)C(O)C2O)CC(O)C(NC(C)=O)C(C(O)C(O)CO)O1` [E21, α-O-Methyl-4R-[{N-acetyl-α2"-neuraminidylmethyl}7'-oxy-2'R and S-hydroxy-hept-3'-en-1'-yl]-L-fucopyranoside] showed an inhibition at 30700 µM (30.7 mM) of 21%.

Broadly, the inhibition is the drop in the measured response relative to a control, in per cent.
